The source of these data is ChEMBL document CHEMBL1201862, “PubChem BioAssay data set” (2004).

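1) Cells in 96-well plates. 2) Compound, 48 h, 5 concentrations. 3) Linear interpolation between surrounding doses. 4) Unreached endpoint = highest concentration. At the GI50, growth is halved.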 Calls of active or inactive are those of the source. No stated cut-off is given here; in the data, active = GI50 up to about 1.1 µM and inactive = higher. A value given as a limit tells only on which side of the number the result lay.

Some test systems named below: NCI-H460; UACC-257; SF-539; SR; SK-OV-3; SN12C; EKVX; NCI-H522; TK-10; CAKI-1; 786-0; MDA-MB-231; A498; SK-MEL-5; NCI-H226; OVCAR-4; RXF 393; A549; HOP-92.
Common to all, as to experiment: NCI-60 cell line screen, 48 h

As for `O=[N+]([O-])c1cc2oc(CSc3ccccc3)nc2cc1Cl`, the GI50 with NCI-H460 is 26.7 µM (inactive); with UACC-257 it was 28.6 µM (inactive); in the assay on SF-539, 32.7 µM (inactive); with SR, 33.3 µM (inactive); in the assay on SK-OV-3, 29.5 µM (inactive); in the assay with SN12C it was 29.9 µM (inactive). The GI50 is 30.7 µM (inactive) in the assay on EKVX; 29.3 µM (inactive) with NCI-H522; 35.8 µM (inactive) in the assay with TK-10; 29 µM (inactive) in the assay on CAKI-1; 34.6 µM (inactive) in the assay on 786-0; 32.2 µM (inactive) with MDA-MB-231. The GI50 in the assay on A498 was 25.5 µM (inactive); with SK-MEL-5, 16.6 µM (inactive); with NCI-H226, 29.6 µM (inactive); with OVCAR-4, 34.4 µM (inactive); with RXF 393 it was 26.4 µM (inactive); in the assay with A549 it was 36.9 µM (inactive). In the assay on HOP-92, the GI50 was 26.6 µM (inactive).
Consider `COc1ccc(/C=C/C(=O)c2nc3ccccc3[nH]2)cc1`, for which the GI50 was 20.5 µM (inactive) in the assay on NCI-H460; 22 µM (inactive) in the assay with UACC-257; 8.32 µM (inactive) in the assay on SF-539; 2.71 µM (inactive) with SR; 21.2 µM (inactive) with SK-OV-3; 25.7 µM (inactive) in the assay on SN12C. Besides, the GI50 in the assay with EKVX was 15.1 µM (inactive); in the assay on NCI-H522, 13.6 µM (inactive); in the assay on TK-10 it was 18.1 µM (inactive); in the assay with CAKI-1 it was 33.3 µM (inactive); in the assay with 786-0 it was 11.6 µM (inactive); with MDA-MB-231, 23.4 µM (inactive). Also, the GI50 with A498 was 26.4 µM (inactive); in the assay with SK-MEL-5, 17.9 µM (inactive); in the assay with NCI-H226, 5.32 µM (inactive); with OVCAR-4, 21.1 µM (inactive); in the assay on RXF 393, 15.5 µM (inactive); with A549, 24.9 µM (inactive). The GI50 with HOP-92 was 14 µM (inactive).
In the case of `NC(=O)NC(=O)c1cccc(C(=O)NC(N)=O)n1`, the GI50 with NCI-H460, in the assay on UACC-257, in the assay with SF-539, in the assay with SR, in the assay with SK-OV-3 and with SN12C was > 100 µM (inactive) in each case. Moreover, the GI50 in the assay on EKVX, with NCI-H522, in the assay on TK-10, with CAKI-1, in the assay with 786-0 and in the assay with MDA-MB-231 was > 100 µM (inactive) throughout. Besides, the GI50 with A498, in the assay with SK-MEL-5, in the assay on NCI-H226, in the assay on OVCAR-4, in the assay with RXF 393 and in the assay with A549 was > 100 µM (inactive) in each case. Further, the GI50 in the assay with HOP-92 was 24 µM (inactive).
Regarding `CC(C)C(OC(=O)c1ccc(NCC2=CC(=O)C=CC2=O)cc1)C(C)C`, the GI50 in the assay on NCI-H460 is 14.6 µM (inactive); in the assay on UACC-257, 7.76 µM (inactive); in the assay with SF-539 it was 1.99 µM (inactive); in the assay on SR, 3.23 µM (inactive); with SK-OV-3, 13.8 µM (inactive); with SN12C it was 9.16 µM (inactive). Further, the GI50 is 8.26 µM (inactive) with EKVX; 1.22 µM (inactive) with NCI-H522; 4.25 µM (inactive) with TK-10; 1.4 µM (inactive) in the assay with CAKI-1; 10.4 µM (inactive) in the assay on 786-0; 7.06 µM (inactive) in the assay on MDA-MB-231. Moreover, the GI50 was 9.12 µM (inactive) in the assay with A498; 10.6 µM (inactive) in the assay on SK-MEL-5; 4.24 µM (inactive) with NCI-H226; 3.64 µM (inactive) in the assay with OVCAR-4; 1.82 µM (inactive) in the assay with RXF 393; 25.2 µM (inactive) with A549. Besides, in the assay with HOP-92, the GI50 was 1.79 µM (inactive).
Consider `CC1CCC2C(C)C3C(CC4C5CC=C6CC(OC7OC(CO)C(O)C(OC8OC(CO)C(O)C(O)C8O)C7OC7OC(C)C(O)C(O)C7O)CCC6(C)C5CCC43C)N2C1` (stereo not given), for which the GI50 is 18.5 µM (inactive) in the assay on NCI-H460; 16.1 µM (inactive) in the assay with UACC-257; 8.83 µM (inactive) in the assay on SF-539; 15.1 µM (inactive) in the assay on SR; 16 µM (inactive) in the assay on SK-OV-3; 11.1 µM (inactive) in the assay on SN12C. The GI50 with EKVX is 9.27 µM (inactive); in the assay with NCI-H522, 15.1 µM (inactive); in the assay with TK-10 it was 16.3 µM (inactive); in the assay on CAKI-1, 11.3 µM (inactive); in the assay with 786-0 it was 9.42 µM (inactive); with MDA-MB-231, 13.6 µM (inactive). For the same compound, the GI50 is 17.5 µM (inactive) in the assay with A498; 18.1 µM (inactive) in the assay with SK-MEL-5; 20.8 µM (inactive) in the assay with NCI-H226; 8.13 µM (inactive) in the assay on OVCAR-4; 10.2 µM (inactive) in the assay on RXF 393; 7.05 µM (inactive) in the assay on A549. The GI50 in the assay on HOP-92 is 17.5 µM (inactive).
`CC(C)/C(Cl)=N\OC(=O)Nc1ccc(S(N)(=O)=O)cc1`: the GI50 was 20.5 µM (inactive) with NCI-H460; 17.4 µM (inactive) with UACC-257; 16.8 µM (inactive) in the assay with SF-539; 2.08 µM (inactive) with SR; 17.7 µM (inactive) with SK-OV-3; 13.9 µM (inactive) with SN12C. For the same compound, the GI50 was 18.5 µM (inactive) in the assay on EKVX; 1.21 µM (inactive) with NCI-H522; 17.9 µM (inactive) in the assay on TK-10; 17.3 µM (inactive) in the assay on CAKI-1; 17.3 µM (inactive) in the assay on 786-0; 12.7 µM (inactive) with MDA-MB-231. Further, the GI50 with A498 is 17 µM (inactive); with SK-MEL-5, 15.9 µM (inactive); in the assay on NCI-H226, 21 µM (inactive); with OVCAR-4 it was 25 µM (inactive); in the assay on RXF 393, 12.6 µM (inactive); with A549, 20 µM (inactive). In addition, in the assay on HOP-92, the GI50 is 5.25 µM (inactive).
For `O=c1c2ncn(COCCCl)c2n(-c2ccccc2)c(=S)n1-c1ccccc1`, the GI50 in the assay with NCI-H460, in the assay with UACC-257, in the assay with SF-539, in the assay with SR, with SK-OV-3 and in the assay on SN12C was > 100 µM (inactive) in each case. The GI50 in the assay with EKVX, in the assay with NCI-H522, with TK-10, in the assay with CAKI-1, in the assay with 786-0 and in the assay with MDA-MB-231 was > 100 µM (inactive) throughout. Also, the GI50 in the assay on A498, in the assay on SK-MEL-5, in the assay on NCI-H226, in the assay with OVCAR-4, in the assay with RXF 393 and with A549 was > 100 µM (inactive) throughout. Further, the GI50 in the assay on HOP-92 was > 100 µM (inactive).
Take `c1ccc(COC2NCCN2Cc2ccccc2)cc1` (stereo not given): the GI50 was > 100 µM (inactive) in the assay on NCI-H460; 61 µM (inactive) in the assay on UACC-257; > 100 µM (inactive) in the assay on SF-539; > 100 µM (inactive) in the assay on SR; > 100 µM (inactive) in the assay on SK-OV-3; > 100 µM (inactive) in the assay with SN12C. Also, the GI50 in the assay with EKVX is 51.2 µM (inactive); in the assay with NCI-H522, > 100 µM (inactive); in the assay with TK-10, > 100 µM (inactive); with CAKI-1, > 100 µM (inactive); with 786-0, > 100 µM (inactive); in the assay on MDA-MB-231, > 100 µM (inactive). The GI50 is 41.7 µM (inactive) with A498; > 100 µM (inactive) with SK-MEL-5; > 100 µM (inactive) in the assay on NCI-H226; > 100 µM (inactive) in the assay with OVCAR-4; > 100 µM (inactive) in the assay on RXF 393; > 100 µM (inactive) in the assay with A549. The GI50 with HOP-92 was > 100 µM (inactive).
`C[n+]1c2ccccc2n2c3ccccc3c(NCCCN3CCOCC3)c(C#N)c21`: the GI50 is 0.684 µM (active) in the assay on NCI-H460; 2.99 µM (inactive) in the assay with UACC-257; 0.556 µM (active) in the assay with SF-539; 2.81 µM (inactive) in the assay on SR; 2.5 µM (inactive) with SK-OV-3; 0.597 µM (active) with SN12C. For the same compound, the GI50 is 2.9 µM (inactive) with EKVX; 0.652 µM (active) with NCI-H522; 1.58 µM (inactive) in the assay with TK-10; 2.45 µM (inactive) with CAKI-1; 1.04 µM (active) in the assay on 786-0; 0.804 µM (active) in the assay on MDA-MB-231. In addition, the GI50 in the assay with A498 was 8.87 µM (inactive); in the assay on SK-MEL-5 it was 2 µM (inactive); in the assay with NCI-H226, 1.86 µM (inactive); with OVCAR-4, 1.56 µM (inactive); in the assay on RXF 393 it was 1.37 µM (inactive); in the assay on A549, 3.33 µM (inactive). The GI50 with HOP-92 is 62.8 µM (inactive).
Turning to `CC(C)(C)OC(=O)c1ccc(NCc2cc(O)ccc2O)cc1`, the GI50 in the assay with NCI-H460 is 10.7 µM (inactive); in the assay with UACC-257 it was 3.78 µM (inactive); in the assay on SF-539, 1.22 µM (inactive); with SR, 0.916 µM (active); in the assay with SK-OV-3, 6.05 µM (inactive); in the assay on SN12C, 1.27 µM (inactive). In addition, the GI50 with EKVX was 2.62 µM (inactive); in the assay with NCI-H522, 0.24 µM (active); in the assay on TK-10, 2.13 µM (inactive); with CAKI-1, 0.676 µM (active); in the assay with 786-0, 2.32 µM (inactive); with MDA-MB-231, 2.31 µM (inactive). The GI50 in the assay on A498 was 9.68 µM (inactive); with SK-MEL-5, 3.65 µM (inactive); in the assay on NCI-H226, 2.22 µM (inactive); with OVCAR-4, 1.75 µM (inactive); with RXF 393, 1.36 µM (inactive); with A549, 7.4 µM (inactive). Besides, the GI50 in the assay with HOP-92 was 1.34 µM (inactive).
